Molecular target: T1, IAPP fibrils (Homo sapiens, UniProt P10997)
T1 construct: purchased Bachem Inc
T1 sequence (P10997 34-70 limits assumed): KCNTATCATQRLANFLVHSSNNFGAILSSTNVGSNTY
Assay: Congo red binding assay, IAPP fibrils
Format: biochemical
Details: 3-day incubation
Experimental: In the Congo red binding assay the ability of a given test compound to alter amyloid (Aβ 1-42 fibrils, IAPP fibrils or NAC fibrils) binding to Congo red was quantified. In this assay, Aβ 1-42 fibrils, IAPP fibril or NAC fibrils and test compounds were incubated for 3 days and then vacuum filtered through a 0.2 μm filter. The amount of Aβ 1-42 fibrils, IAPP fibrils or NAC fibrils retained in the filter was then quantitated following staining of the filter with Congo red. After appropriate washing of the filter, any lowering of the Congo red color on the filter in the presence of the test compound (compared to the Congo red staining of the amyloid protein in the absence of the test compound) was indicative of the test compound's ability to diminish/alter the amount of aggregated and congophilic Aβ 1-42 fibrils, IAPP fibrils or NAC fibrils.
In the Congo red binding assay the ability of a test compound to alter amyloid (in this case, IAPP) binding to Congo red is quantified. In this assay, IAPP and test compounds were incubated for 3 days and then vacuum filtered through a 0.2 μm filter. The amount of IAPP retained in the filter was then quantified following staining of the filter with Congo red. After appropriate washing of the filter, any lowering of the Congo red color on the filter in the presence of the test compound (compared to the Congo red staining of the amyloid protein in the absence of the test compound) was indicative of the test compound's ability to diminish/alter the amount of aggregated and congophilic IAPP.
In one study, the ability of IAPP fibrils to bind Congo red in the absence or presence of increasing amounts of the compounds or EDTA (at IAPP:test compound weight ratios of 1:0.001, 1:0.01, 1:0.1 and 1:1) was determined.

O=C(O)CN(CCN(CC(=O)O)CC(=O)O)CC(=O)O [EDTA]
inhibition of IAPP fibril binding to Congo red, in words: no significant inhibition | % inhibition of IAPP (Congo red binding) (IAPP:test compound wt/wt ratio 1:0.001): 0.0 ± 1.82% | % inhibition of IAPP (Congo red binding) (IAPP:test compound wt/wt ratio 1:0.01): 0.0 +/− 1.65% | % inhibition of IAPP (Congo red binding) (IAPP:test compound wt/wt ratio 1:0.1): 0.0 +/− 2.40% | % inhibition of IAPP (Congo red binding) (IAPP:test compound wt/wt ratio 1:1): 13.9 +/− 4.71%

Source: patent US20110104055A1, “SUBSTITUTED N-ARYL BENZAMIDES AND RELATED COMPOUNDS FOR TREATMENT OF AMYLOID DISEASES AND SYNUCLEINOPATHIES” (priority 2002, published 2011)
